Measured values taken from patent US7598412B2, “Modulators of ATP-binding cassette transporters” (Vertex Pharmaceuticals Incorporated, priority 2003, dated 2009).
Values joined by “and” are separate entries in the source; they are usually repeats but may differ in a detail not shown here. Identical values can stand only once.

Test system: cAMP levels in FRT cells
Test: Tropix assay for measurement of cAMP in FRT cells
Assay type: cell-based, rat
Settings: n=4; for cAMP generated, average % of cAMP produced by 20 μM of forskolin: 15 minutes incubation
Experimental: In the following example, the effect on cAMP levels by three structurally similar compounds from Table 1 were determined using the cAMP levels from 20 μM forskolin as the normalized reference measure.
The level of cAMP in FRT cells following 0.5 μM forskolin or test compound application was determined using a commercially available chemiluminiscent immunoassay system for mammalian cells called Tropix® (Applied Biosystems, Bedford, Mass.). Briefly, FRT cells were incubated for 15 minutes with a test compound in the presence and absence of 0.5 μM forskolin. The compounds were aspirated and the cells were then lysed and transferred along with the lysis buffer to a 96-well Tropix® ELISA plate. A cAMP-Alk Phos conjugate is then added to the assay plate, followed by the addition of cAMP anti-body. After several wash and aspiration steps, Sapphire blue II solution is added and the […], and the cAMP concentrations were determined using a cAMP standard curve that was present in each plate.

[1] = compound in the presence of 0.5 μM forskolin, FRT cells

Compound	cAMP generated, average % of cAMP produced by 20 μM of forskolin (compound alone, FRT cells)	cAMP generated, average % of cAMP produced by 20 μM of forskolin [1]	change of cAMP compared with the DMSO control (compound alone)	change of cAMP compared with the 0.5 μM forskolin control (compound in the presence of 0.5 μM forskolin)	cAMP of the 0.5 μM forskolin control, % of 20 μM forskolin (0.5 μM forskolin alone, FRT cells)
COc1ccc(C2(CNC(=O)c3cc4ccccc4o3)CCCC2)cc1OC [Compound 7, N-((1-(3,4-dimethoxyphenyl)-cyclopentyl)methyl)benzofuran-2-carboxamide]	40.3±3.5%	92.3±2.7%			
COc1ccc(C(C)(C)CNC(=O)c2cc3ccccc3o2)cc1OC [Compound 34, N-(2-(3,4-dimethoxyphenyl)-2-methylpropyl)benzofuran-2-carboxamide]	24.4±1.1%	61.5±1.8%	not a significant increase	significant increase	
C=C[C@@]1(C)CC(=O)[C@]2(O)[C@@]3(C)[C@@H](O)CCC(C)(C)[C@@H]3[C@H](O)[C@H](OC(C)=O)[C@@]2(C)O1 [forskolin, reference compound]					45.9±3.0% and 32.2±3.2%
